Data from publication PMC4922569, “Antifibrotic Effects of the Dual CCR2/CCR5 Antagonist Cenicriviroc in Animal Models of Liver and Kidney Fibrosis” (PLoS ONE, 2016).
Structures can show the parent of a compound that is named as a salt.

Tests used:
diet-induced NASH = test: Mouse model of diet-induced NASH; assay type: in vivo; conditions: for NAS, mean (±SD): vehicle 5.3 (±0.5); for Liver hydroxyproline content: vehicle 0.75±0.18; for Percentage of inflammation area (F4/80+ area): vehicle 4.99±1.10; for M1/M2 ratio (F4/80+CD16/32+ / F4/80+CD206+): vehicle 99.6±20.2; for Reduction in modified fibrosis area (perivascular space subtracted) vs vehicle control / Reduction in percentage of fibrosis area vs vehicle control: p < 0.01; for Plasma CCL2 levels: vehicle 60±4
Description: NASH was induced in male C57BL/6 mice (Charles River Laboratories, Japan) via subcutaneous injection of 200 μg of streptozotocin 2 days post-birth (causing mild islet inflammation and islet destruction) plus a high-fat diet (57 kcal% fat) from 4 weeks of age (sequentially causing fatty changes to the liver, NASH and fibrosis). From Weeks 6 to 9, three groups (n = 9/group) received vehicle control, CVC20 or CVC100 BID PO (S1 Table). At Week 9, six animals per group were sacrificed for assessment of liver fibrosis and Non-Alcoholic Fatty Liver Disease (NAFLD) Activity Score (NAS). The animals were sacrificed by exsanguination through direct cardiac puncture under ether anesthesia. Study endpoints included: body and liver weights, plasma biochemistry (e.g. ALT and CCL2), extracellular matrix protein in liver tissue (hydroxyproline content), mRNA expression (collagen type 1, tumor necrosis factor-alpha, MCP-1, TIMP1) and histopathological analyses. Blood samples were collected and plasma samples derived for biochemistry assessments. Sections were cut from paraffin blocks of liver tissue, prefixed in Bouin’s solution and stained with H&E for histological examination.
In the TAA model, serum ALT/AST levels were measured using VITROS® 5,1 FS (Ortho Clinical Diagnostics, USA), with plasma diluted with VITROS® 7% bovine serum albumin if needed. In the NASH model, plasma ALT levels were measured by FUJI DRI-CHEM 7000 (Fujifilm, Japan) and plasma CCL2 concentration quantified by the mouse CCL2/JE/MCP-1 immunoassay kit (R&D, USA).
In the NASH model, bright field images of picrosirius red-stained sections were captured around the central vein using a digital camera (DFC280; Leica, Germany) at 200x magnification; the ‘positive’ areas in five fields/sections were measured using ImageJ software (National Institutes of Health, USA). Perivascular areas were subtracted from the total positive areas for each field (modified fibrosis area). The NAS, a histological tool developed to assess disease severity in humans, was assessed in a blinded fashion and calculated according to Kleiner’s criteria on H&E-stained sections. It is based on the semi-quantification of steatosis, lobular inflammation and hepatocellular ballooning.
In the NASH model, liver sections fixed in acetone were incubated with anti-F4/80 antibody (BMA Biomedicals, Switzerland) to assess inflammation. Double immunohistochemical analyses were performed with anti-CD206 (RayBiotec, USA) or anti-CD16/32 (BD Biosciences, USA) antibodies. Cells were counted and the M1/M2 polarization ratio was calculated as mean percentage of F4/80+CD16/32+ cells/mean percentage of F4/80+CD206+ cells.
In the NASH model, frozen liver samples were subjected to an alkaline-acid hydrolysis, then centrifuged, and the supernatant collected. Hydroxyproline content was quantified against a hydroxyproline standard curve, with a BCA protein assay kit (Thermo Fisher Scientific, USA) used to normalize the calculated hydroxyproline values.
In the hepatic-fibrosis models, RNA was extracted from liver tissues and purified, and 1 μg of total mRNA was reverse-transcribed into complementary DNA. Expression levels were determined by quantitative polymerase chain reaction (PCR) (iQ™ SYBR® Green Supermix [Bio-Rad Laboratories, USA] on the LightCycler® 480 Real-Time PCR System [Roche, Switzerland]) in the TAA model at Week 8 (early intervention and established fibrosis) and Week 12 (cirrhosis reversal), and by real-time PCR (PCR Dice® and SYBR® Premix Ex Taq™ [Takara Bio Inc., Japan]) at Week 9 in the NASH model.
Relative mRNA expression levels were normalized to the following reference genes: TAA model, GAPDH; NASH model, 36B4 (gene symbol: Rplp0); UUO model, hypoxanthine phosphoribosyltransferase.
In the NASH model, data are expressed as mean ±standard deviation (SD). Statistical analyses were performed using the Bonferroni multiple comparison test (GraphPad Prism® 4 software).

[1] = Body and liver weights, TAA model; assay type: in vivo, rat; conditions: average±SD
Description: Using male Sprague-Dawley rats (n = 72, 10–12 weeks of age; Harlan Laboratories, USA), fibrosis was induced by IP administration of TAA at a dose of 150 mg/kg three times per week for 8 weeks. Rats (n = 4–8/group) received vehicle control, CVC 30 mg/kg/day (CVC30) or CVC100 QD PO during Weeks 0–8 (early intervention), Weeks 4–8 (established fibrosis) or Weeks 8–12 (cirrhosis reversal) and were sacrificed at Weeks 8, 8 or 12, respectively (S1 Table). Study endpoints included: body and liver weights, liver biochemistry (e.g. serum alanine and aspartate aminotransferase [ALT/AST]), extracellular matrix protein expression in liver tissue (collagen type 1 and alpha-SMA), mRNA expression (collagen type 1, alpha-SMA, beta-platelet-derived growth factor-beta receptor, TGF beta-receptor, matrix metalloproteinase 2, tissue inhibitor of metalloproteinases 1 [TIMP1] and 2 [TIMP2]) and liver morphology. For liver-function testing, plasma samples were obtained from blood collected from the vena cava. Livers were sectioned and fixed in 3.7% formalin, embedded in paraffin, cut at […] thickness and stained with hematoxylin and eosin (H&E) for histological examination.
Body weight (measured before and during treatment) and sacrificed animal body and liver/kidney/spleen weights were recorded.

[2] = cirrhosis reversal, CVC 30 mg/kg/day
[3] = cirrhosis reversal, CVC 100 mg/kg/day
[4] = early intervention, CVC 30 mg/kg/day
[5] = early intervention, CVC 100 mg/kg/day
[6] = established fibrosis, CVC 30 mg/kg/day
[7] = established fibrosis, CVC 100 mg/kg/day

Structure (SMILES): CCCCOCCOc1ccc(-c2ccc3c(c2)/C=C(/C(=O)Nc2ccc([S@@+]([O-])Cc4cncn4CCC)cc2)CCCN3CC(C)C)cc1 [CVC, cenicriviroc mesylate]
- Hepatocyte ballooning score 0, number of animals (diet-induced NASH; CVC20, n = 6): 0
- Hepatocyte ballooning score 1, number of animals (diet-induced NASH; CVC20, n = 6): 3
- Hepatocyte ballooning score 2, number of animals (diet-induced NASH; CVC20, n = 6): 3
- Lobular inflammation score 0, number of animals (diet-induced NASH; CVC20, n = 6): 0
- Lobular inflammation score 1, number of animals (diet-induced NASH; CVC20, n = 6): 3
- Lobular inflammation score 2, number of animals (diet-induced NASH; CVC20, n = 6): 3
- Lobular inflammation score 3, number of animals (diet-induced NASH; CVC20, n = 6): 0
- Steatosis score 0, number of animals (diet-induced NASH; CVC20, n = 6): 0
- Steatosis score 1, number of animals (diet-induced NASH; CVC20, n = 6): 6
- Steatosis score 2, number of animals (diet-induced NASH; CVC20, n = 6): 0
- Steatosis score 3, number of animals (diet-induced NASH; CVC20, n = 6): 0
- NAS, mean (±SD) (diet-induced NASH; CVC20, n = 6, p = 0.0013): 4.0 (±0.6)
- Reduction in collagen type 1 mRNA expression vs vehicle control (diet-induced NASH; CVC20, p < 0.05): 37%
- Liver hydroxyproline content (diet-induced NASH; CVC20): 0.63 ± 0.05 µg/mg
- Percentage of inflammation area (F4/80+ area) (diet-induced NASH; CVC20, not significant): 4.77±1.02%
- M1/M2 ratio (F4/80+CD16/32+ / F4/80+CD206+) (diet-induced NASH; CVC20, not significant): 112.3±17.0%
- Reduction in modified fibrosis area (perivascular space subtracted) vs vehicle control (diet-induced NASH; CVC20 BID PO Weeks 6-9): 52.5%
- Reduction in percentage of fibrosis area vs vehicle control (diet-induced NASH; CVC20 BID PO Weeks 6-9): 40.0%
- Plasma CCL2 levels (diet-induced NASH; CVC20 BID PO Weeks 6-9, not significant): 68 ± 16 pg/mL
- Hepatocyte ballooning score 0, number of animals (diet-induced NASH; CVC100, n = 6): 1
- Hepatocyte ballooning score 1, number of animals (diet-induced NASH; CVC100, n = 6): 2
- Hepatocyte ballooning score 2, number of animals (diet-induced NASH; CVC100, n = 6): 3
- Lobular inflammation score 0, number of animals (diet-induced NASH; CVC100, n = 6): 0
- Lobular inflammation score 1, number of animals (diet-induced NASH; CVC100, n = 6): 3
- Lobular inflammation score 2, number of animals (diet-induced NASH; CVC100, n = 6): 3
- Lobular inflammation score 3, number of animals (diet-induced NASH; CVC100, n = 6): 0
- Steatosis score 0, number of animals (diet-induced NASH; CVC100, n = 6): 1
- Steatosis score 1, number of animals (diet-induced NASH; CVC100, n = 6): 5
- Steatosis score 2, number of animals (diet-induced NASH; CVC100, n = 6): 0
- Steatosis score 3, number of animals (diet-induced NASH; CVC100, n = 6): 0
- NAS, mean (±SD) (diet-induced NASH; CVC100, n = 6, p = 0.0009): 3.7 (±0.8)
- Reduction in collagen type 1 mRNA expression vs vehicle control (diet-induced NASH; CVC100, not statistically significant): 27%
- Liver hydroxyproline content (diet-induced NASH; CVC100): 0.62 ± 0.09 µg/mg
- M1/M2 ratio (F4/80+CD16/32+ / F4/80+CD206+) (diet-induced NASH; CVC100, not significant): 125.1±21.9%
- Reduction in modified fibrosis area (perivascular space subtracted) vs vehicle control (diet-induced NASH; CVC100 BID PO Weeks 6-9): 67.2%
- Reduction in percentage of fibrosis area vs vehicle control (diet-induced NASH; CVC100 BID PO Weeks 6-9): 41.8%
- Plasma CCL2 levels (diet-induced NASH; CVC100 BID PO Weeks 6-9, significant increase): 91 ± 14 pg/mL
- Percentage of inflammation area (F4/80+ area) (diet-induced NASH; CVC-high, not significant): 4.96±0.60%
- mRNA expression levels of the other fibrosis markers tested, vehicle control vs CVC groups (diet-induced NASH; NASH model, Week 9): no statistically significant differences
- Plasma ALT levels vs vehicle control (diet-induced NASH; both CVC doses (CVC20, CVC100 BID PO Weeks 6-9), p < 0.05): significantly decreased
- Final body weight [1, 2]: 390.3 ± 9.3 g
- Liver weight [1, 2]: 19 ± 0.7 g
- Liver-to-body weight ratio [1, 2]: 4.9±0.2%
- Final body weight [1, 3]: 386.4 ± 4.9 g
- Liver weight [1, 3]: 18.5 ± 0.7 g
- Liver-to-body weight ratio [1, 3]: 4.8±0.2%
- Final body weight [1, 4]: 330.9 ± 6.4 g
- Liver weight [1, 4]: 17.9 ± 1.6 g
- Liver-to-body weight ratio [1, 4]: 5.4±0.5%
- Final body weight [1, 5]: 347.2 ± 6.9 g
- Liver weight [1, 5]: 17.5 ± 0.5 g
- Liver-to-body weight ratio [1, 5]: 5.0±0.1%
- Final body weight [1, 6]: 342.0 ± 7.7 g
- Liver weight [1, 6]: 15.6 ± 0.6 g
- Liver-to-body weight ratio ([1]; established fibrosis, CVC 30 mg/kg/day, p < 0.05 vs vehicle control): 4.6±0.1 %
- Final body weight [1, 7]: 327.3 ± 7.8 g
- Liver weight [1, 7]: 15.8 ± 0.9 g
- Liver-to-body weight ratio [1, 7]: 4.8±0.2%
